Experimental findings from patent publication US8673908B2, “Kynurenine production inhibitor” (Kyowa Hakko Kirin Co., Ltd., priority 2008, dated 2014) are described below.

Each structure is given as a SMILES string.

This test concerns kynurenine production in IFN-γ-treated KATO-III cells. The test can be described thus: Inhibitory activity on kynurenine production (Test Example 1). In kind it is cell-based. To be noted: Homo sapiens, IFN-γ treatment, culture for 96 hours, read-out: IC50 value, inhibition of kynurenine production. The method, boiled down:
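Read-out is absorbance at 480 nm of medium treated with trichloroacetic acid, then p-dimethylaminobenzaldehyde, to quantify kynurenine. DMSO-only wells with and without IFN-γ serve as references. Cells were KATO-III, 2,000 per well, 96 h at 37 °C/5% CO2 with compound (DMSO ≤0.1%) and IFN-γ at 31.25 ng/mL in the added suspension.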
The term IC50 denotes the concentration that gives 50% inhibition. Take `Cn1cncc1C(Oc1nc2ccccc2nc1NS(=O)(=O)NC1CC1)C(F)(F)F` (stereo not drawn) [Compound 287, N-{3-[2,2,2-trifluoro-1-(1-methyl-1H-imidazol-5-yl)ethoxy]-quinoxalin-2-yl}-N′-cyclopropyl-sulfuric diamide]: the IC50 fell in the range of 1000 to 10000 nM.

Take `CCCS(=O)(=O)Nc1nc2ccccc2nc1O[C@H](c1cccnc1)C(F)(F)F` [Compound 312, (R)—N-{3-[2,2,2-trifluoro-1-(pyridin-3-yl)ethoxy]-quinoxalin-2-yl}propane-1-sulfonamide]: the IC50 was < 1000 nM.

Take `Cc1nn(C)c(Cl)c1S(=O)(=O)Nc1nc2ccccc2nc1OC(c1cccnc1)C(F)(F)F` (stereo not drawn) [Compound 141, 5-chloro-1,3-dimethyl-N-{3-[2,2,2-trifluoro-1-(pyridin-3-yl)ethoxy]quinoxalin-2-yl}-1H-pyrazole-4-sulfonamide]: the IC50 was < 1000 nM.

For the compound `CCCNS(=O)(=O)Nc1nc2ccccc2nc1O[C@H](c1cccnc1)C(F)(F)F` [Compound 314, (R)—N-propyl-N′-{3-[2,2,2-trifluoro-1-(pyridin-3-yl)-ethoxy]quinoxalin-2-yl}sulfuric diamide], the IC50 is < 1000 nM.

`O=S(=O)(Nc1nc2ccccc2nc1OC(c1ccc(CO)cc1)C(F)(F)F)c1ccccc1Cl` (stereo not drawn) [Compound 60, 2-chloro-N-{3-[2,2,2-trifluoro-1-(4-hydroxymethylphenyl)-ethoxy]quinoxalin-2-yl}benzenesulfonamide]: the concentration for half-maximal inhibition (IC50) was < 1000 nM.

As for `CCCS(=O)(=O)Nc1nc2ccccc2nc1OC(C(F)(F)F)C1(OC)CCOCC1` (stereo not drawn) [Compound 353, N-{3-[2,2,2-trifluoro-1-(4-methoxytetrahydro-2H-pyran-4-yl)ethoxy]quinoxalin-2-yl}propane-1-sulfonamide], the IC50 is < 1000 nM.

For the compound `O=S(=O)(Cc1ccccc1)Nc1nc2ccccc2nc1OC(c1cccnc1)C(F)(F)F` (stereo not drawn) [Compound 147, 1-phenyl-N-{3-[2,2,2-trifluoro-1-(pyridin-3-yl)ethoxy]-quinoxalin-2-yl}methanesulfonamide], the IC50 was < 1000 nM.

On to `N#CC1(COc2nc3ccccc3nc2NS(=O)(=O)c2ccccc2Cl)CCOCC1` [Compound 250, 2-chloro-N-{3-[(4-cyanotetrahydro-2H-pyran-4-yl)methoxy]-quinoxalin-2-yl}benzenesulfonamide], for which the IC50 fell in the range of 1000 to 10000 nM.

For the compound `CCCNS(=O)(=O)Nc1nc2ccccc2nc1OC(c1cccc(C#N)c1)C(F)(F)F` (stereo not drawn) [Compound 291, N-{3-[1-(3-cyanophenyl)-2,2,2-trifluoroethoxy]quinoxalin-2-yl}-N′-propyl-sulfuric diamide], the IC50 is < 1000 nM.

For the compound `O=S(=O)(Nc1nc2ccccc2nc1OC(c1cncs1)C(F)(F)F)NC1CC1` (stereo not drawn) [Compound 286, N-{3-[2,2,2-trifluoro-1-(thiazol-5-yl)ethoxy]quinoxalin-2-yl}-N′-cyclopropyl-sulfuric diamide], the IC50 was < 1000 nM.

Consider `Cc1ncc(C(Oc2nc3ccccc3nc2NS(=O)(=O)CC2CC2)C(F)(F)F)s1` (stereo not drawn) [Compound 306, 1-cyclopropyl-N-{3-[2,2,2-trifluoro-1-(2-methylthiazol-5-yl)ethoxy]quinoxalin-2-yl}methanesulfonamide], for which the IC50 is < 1000 nM.

`COc1ccc(COc2nc3cccnc3nc2NS(=O)(=O)c2cccc(Cl)c2Cl)cc1` [Compound 5]: the half-inhibitory concentration (IC50) was in the range of 1000 to 10000 nM.

As to `CCCS(=O)(=O)Nc1nc2ccccc2nc1OC(c1csc(C)n1)C(F)(F)F` (stereo not drawn) [Compound 344, N-{3-[2,2,2-trifluoro-1-(2-methylthiazol-4-yl)ethoxy]-quinoxalin-2-yl}propane-1-sulfonamide], the IC50 is < 1000 nM.

In the case of `CCCS(=O)(=O)Nc1nc2ccccc2nc1OCc1cnc(C)s1` [Compound 345, N-{3-[(2-methylthiazol-5-yl)methoxy]quinoxalin-2-yl}-propane-1-sulfonamide], the IC50 lay within 1000 to 10000 nM.

As to `CCCS(=O)(=O)Nc1nc2ccccc2nc1OC(C(F)(F)F)C1(C#N)CCOCC1` (stereo not drawn) [Compound 351, N-{3-[2,2,2-trifluoro-1-(4-cyanotetrahydro-2H-pyran-4-yl)-ethoxy]quinoxalin-2-yl}propane-1-sulfonamide], the IC50 was < 1000 nM.

With `CCOCC(C)Oc1nc2ccccc2nc1NS(=O)(=O)c1ccccc1Cl` (stereo not drawn) [Compound 232, 2-chloro-N-[3-(1-ethoxypropan-2-yloxy)quinoxalin-2-yl]-benzenesulfonamide], the IC50 lay within 1000 to 10000 nM.

Take `O=S(=O)(Nc1nc2ccccc2nc1OC(c1ccsc1)C(F)(F)F)c1cccc(Cl)c1Cl` (stereo not drawn) [Compound 101, 2,3-dichloro-N-{3-[2,2,2-trifluoro-1-(thiophen-3-yl)-ethoxy]quinoxalin-2-yl}benzenesulfonamide]: the IC50 is < 1000 nM.

Regarding `CCCS(=O)(=O)Nc1cc2ccccc2nc1OC(c1cccnc1)C(F)(F)F` (stereo not drawn) [Compound 358, N-{2-[2,2,2-trifluoro-1-(pyridin-3-yl)ethoxy]quinolin-3-yl}propane-1-sulfonamide], the IC50 is 1000 to 10000 nM.

As for `O=S(=O)(Nc1nc2ccccc2nc1OC(c1cccnc1)C(F)(F)F)c1cccc(Cl)c1` (stereo not drawn) [Compound 181, 3-chloro-N-{3-[2,2,2-trifluoro-1-(pyridin-3-yl)ethoxy]-quinoxalin-2-yl}benzenesulfonamide], the IC50 was < 1000 nM.

`O=S(=O)(Nc1nc2ccccc2nc1OCc1ccc2ccccc2c1)c1cc(Cl)ccc1Cl` [Compound 28, 2,5-dichloro-N-{3-[(2-naphthyl)methoxy]quinoxalin-2-yl}-benzenesulfonamide]: the IC50 was < 1000 nM.

With `Cc1nn(C)c(Cl)c1S(=O)(=O)Nc1nc2ccccc2nc1OC(C1CCOCC1)C(F)(F)F` (stereo not drawn) [Compound 120, 5-chloro-1,3-dimethyl-N-{3-[2,2,2-trifluoro-1-(tetrahydro-2H-pyran-4-yl)ethoxy]quinoxalin-2-yl}-1H-pyrazole-4-sulfonamide], the IC50 is < 1000 nM.

For the compound `Cc1ccc(C(Oc2nc3ccccc3nc2NS(=O)(=O)CC2CC2)C(F)(F)F)cn1` (stereo not drawn) [Compound 305, 1-cyclopropyl-N-{3-[2,2,2-trifluoro-1-(6-methylpyridin-3-yl)ethoxy]quinoxalin-2-yl}methanesulfonamide], the IC50 was < 1000 nM.

With `CC(COc1nc2ccccc2nc1NS(=O)(=O)c1ccccc1Cl)Cc1cccnc1` (stereo not drawn) [Compound 176, 2-chloro-N-{3-[2-methyl-3-(pyridin-3-yl)propoxy]quinoxalin-2-yl}benzenesulfonamide], the IC50 is < 1000 nM.

As for `CCCS(=O)(=O)Nc1nc2ccccc2nc1O[C@@H](C1CCOCC1)C(F)(F)F` [Compound 346, (S)—N-{3-[2,2,2-trifluoro-1-(tetrahydro-2H-pyran-4-yl)-ethoxy]quinoxalin-2-yl}propane-1-sulfonamide], the IC50 lay within 1000 to 10000 nM.

With `O=S(=O)(Nc1nc2ccccc2nc1OC(C1CCCCC1)C(F)(F)F)c1cccc(Cl)c1Cl` (stereo not drawn) [Compound 102, 2,3-dichloro-N-[3-(1-cyclohexyl-2,2,2-trifluoroethoxy)-quinoxalin-2-yl]benzenesulfonamide], the IC50 was < 1000 nM.

With `O=CCCNS(=O)(=O)Nc1nc2ccccc2nc1OC(c1cccnc1)C(F)(F)F` (stereo not drawn) [Compound 273, N-{3-[2,2,2-trifluoro-1-(pyridin-3-yl)ethoxy]quinoxalin-2-yl}-N′-(3-oxopropyl)-sulfuric diamide], the IC50 lay within 1000 to 10000 nM.

As for `O=S(=O)(Nc1nc2ccccc2nc1OC1(c2cccnc2)CCOCC1)c1ccccc1Cl` [Compound 90, 2-chloro-N-{3-{[4-(pyridin-3-yl)tetrahydropyran-4-yl]oxy}-quinoxalin-2-yl}benzenesulfonamide], the IC50 is < 1000 nM.

In the case of `CC(CCOc1nc2ccccc2nc1NS(=O)(=O)c1ccccc1Cl)c1cccnc1` (stereo not drawn) [Compound 177, 2-chloro-N-{3-[3-(pyridin-3-yl)butoxy]quinoxalin-2-yl}-benzenesulfonamide], the IC50 is < 1000 nM.

With `Cc1ccccc1S(=O)(=O)Nc1nc2ccccc2nc1OC(c1cccnc1)C(F)(F)F` (stereo not drawn) [Compound 156, 2-methyl-N-{3-[2,2,2-trifluoro-1-(pyridin-3-yl)ethoxy]-quinoxalin-2-yl}benzenesulfonamide], the IC50 is < 1000 nM.

For the compound `CCCS(=O)(=O)Nc1nc2ccccc2nc1O[C@H](c1cccc(C#N)c1)C(F)(F)F` [Compound 349, (R)—N-{3-[2,2,2-trifluoro-1-(3-cyanophenyl)ethoxy]-quinoxalin-2-yl}propane-1-sulfonamide], the IC50 was < 1000 nM.

As to `O=S(=O)(Nc1nc2ccccc2nc1OC(c1ccc(C(F)(F)F)cc1)C(F)(F)F)c1ccccc1C(F)(F)F` (stereo not drawn) [Compound 35, 2-(trifluoromethyl)-N-{3-[2,2,2-trifluoro-1-(4-trifluoromethylphenyl)ethoxy]quinoxalin-2-yl}benzenesulfonamide], the IC50 is < 1000 nM.

As for `O=S(=O)(Nc1nc2ccccc2nc1OC(c1cccnc1)C(F)(F)F)N1CCOCC1` (stereo not drawn) [Compound 188, N-{3-[2,2,2-trifluoro-1-(pyridin-3-yl)ethoxy]quinoxalin-2-yl}morpholine-4-sulfonamide], the IC50 was < 1000 nM.

Consider `CCOC(CCNS(=O)(=O)Nc1nc2ccccc2nc1OC(c1cccnc1)C(F)(F)F)OCC` (stereo not drawn) [Compound 272, N-{3-[2,2,2-trifluoro-1-(pyridin-3-yl)ethoxy]quinoxalin-2-yl}-N′-(3,3-diethoxypropyl)-sulfuric diamide], for which the IC50 is < 1000 nM.

Regarding `O=S(=O)(Nc1nc2ccccc2nc1OC(c1cccnc1)c1cccnc1)c1ccccc1Cl` [Compound 242, 2-chloro-N-[3-(dipyridin-3-ylmethoxy)quinoxalin-2-yl]-benzenesulfonamide], the IC50 is < 1000 nM.

`O=S(=O)(Nc1nc2ccccc2nc1OC(c1cccnc1)C1CCOCC1)c1ccccc1Cl` (stereo not drawn) [Compound 73, 2-chloro-N-{3-[tetrahydropyran-4-yl(pyridin-3-yl)methoxy]-quinoxalin-2-yl}benzenesulfonamide]: the IC50 was < 1000 nM.

For the compound `O=S(=O)(Nc1nc2ccccc2nc1OC(c1ccccn1)C(F)(F)F)c1ccccc1Cl` (stereo not drawn) [Compound 48, 2-chloro-N-{3-[2,2,2-trifluoro-1-(pyridin-2-yl)ethoxy]-quinoxalin-2-yl}benzenesulfonamide], the IC50 is < 1000 nM.
